Assays:
MYXV [1] = experiment: MYXV reporter gene expression (GFP/TdTomato) and foci by fluorescence microscopy in human cancer cell lines; details: PANC-1 and HT29 cells; pretreatment with LMB 0.001-0.1 μM; vMyx-GFP-TdTomato
MYXV [2] = experiment: Viral replication assay: progeny virus titration on permissive rabbit RK13 cells; assay type: cell-based, myxoma virus; details: PANC-1 and HT29 cells; LMB 0.001-0.1 μM
Procedure: Viral titers in different human cancer cell lines were determined using a viral replication assay. Cells were seeded in 24-well plates (2×10^5 cells/well). The next day, the cells were treated with different concentrations of leptomycin B (LMB) or selinexor diluted in DMEM for 1 hour. MYXV was added to the cells and incubated for one hour at 37° C. After 1 hour, the unbound viruses were washed away using DMEM, and DMEM with LMB or selinexor was added to the cells. Cells were harvested in DMEM without LMB or selinexor at the indicated time points. After harvesting the cells, they were stored at −80° C. until processing. Samples were subjected to three freeze/thaw cycles and one-minute sonification to lyse cells and release the viral particles. Afterwards, different dilutions were prepared in DMEM and plated on rabbit RK13 and foci were counted after 48 hours using a fluorescent microscope. All assays and dilutions were performed in triplicate.

DHX9 = experiment: Immunofluorescence staining of DHX9 localization / antiviral granules in MYXV-infected A549 cells; assay type: cell-based, human
Procedure: Immunofluorescence: Cells (5×10^5-1×10^6/dish) were seeded onto glass bottom 35 mm petri dishes overnight. Depending on the experiment, the next day, cells were transfected with siRNA for 48 hours or treated with a nuclear export inhibitor, MYXV, or a combination of both. At different time points after treatment, the cells were washed with PBS three times, fixed with 2% paraformaldehyde in PBS for 12 minutes at room temperature, washed with PBS three times, and permeabilized in 0.1% Triton™ X-100 in PBS for 90 seconds at room temperature. Fixed cells were washed with PBS three times and then blocked with 3% BSA in PBS for 30 minutes at 37° C., incubated with primary antibody (1:300 dilution) for 30 minutes at 37° C., washed with PBS six times, and incubated with secondary antibodies conjugated to different Alexa Fluor. After washing again with PBS six times, samples were mounted on glass slides with Vecta Shield (Vectorlabs) containing DAPI (4′,6′-diamidino-2-phenylindole) to stain DNA in the nuclei […]. Images were captured using a fluorescence microscope (Leica).

Compound: CCC(=C/[C@H](C)C/C=C/C(C)=C/[C@@H](C)C(=O)[C@@H](C)[C@H](O)[C@@H](C)C/C(C)=C/C(=O)O)/C=C/[C@@H]1OC(=O)C=C[C@@H]1C [LMB, leptomycin B]
- viral gene expression (early/late GFP and late TdTomato reporter protein expression) (MYXV [1]): enhanced viral gene expression
- viral production measured by titration assay (MYXV [2]): significantly enhanced viral production
- formation of DHX9 antiviral granules in the cytoplasm (DHX9; A549 cells infected with vMyx-GFP, 24 h): blocked the formation of antiviral granules
- cells in which DHX9 remained in the nucleus (DHX9; A549 cells, LMB 1 h then vMyx-GFP MOI=1, 24 h): > 80%

Reference: patent publication US20250249056A1, “CANCER THERAPIES COMPRISING A NUCLEAR EXPORT INHIBITOR AND AN ONCOLYTIC VIRUS” (priority 2022, published 2025)
